Data on eight molecules can be found in patent US12152034B2, “FGFR inhibitors and methods of making and using the same” (Relay Therapeutics, Inc., priority 2020, dated 2024).

Common to all, as to assay type: physicochemical
The nature of series [1]: Solubility in Fasted State Simulated Intestinal Fluid (FaSSIF) and final pH in solution, salt screen of compound I-2. The following applies: for Final pH: final pH in solution of the FaSSIF solubility sample. On the procedure: The free base of Compound I-1 (compound I-2, 30 mg) was suspended in IPA (20 Vol., 600 μl at 50° C.). The suspensions were then cooled down to 5° C. at 0.1° C./min and were held at this temperature for 16 hrs. Stirring (500 rpm) was maintained throughout. Any gums that formed were maturated between 25 and 50° C. (4 hours at each temperature for 24 hrs). The suspensions were isolated by filtration under suction and air dried then analysed by XRPD. Any new patterns identified by XRPD were analysed further by NMR, TGA, DSC and stability at 40 C/75% RH for 1 week.
Several samples were analyzed for solubility in Fasted State Simulated Intestinal Fluid (FaSSIF) and final pH in solution.

Series [2] can be described thus: Solubility in organic solvents quoted in competitive suspension equilibration studies. The following applies: organic solvent or mixture.
Series [3] in a line: Storage at 40° C./75% RH for 7 days (one week), form checked by XRPD. The following applies: 40° C./75% RH, one week (7 days). On the procedure: The suspensions were then cooled down to 5° C. at 0.1° C./min and were held at this temperature for 16 hrs. Stirring (500 rpm) was maintained throughout. Any gums that formed were maturated between 25 and 50° C. (4 hours at each temperature for 24 hrs). The suspensions were isolated by filtration under suction and air dried then analysed by XRPD. Any new patterns identified by XRPD were analysed further by NMR, TGA, DSC and stability at 40 C/75% RH for 1 week.

Series [4] can be described thus: Solubility assessment in solvents by aliquot addition (5-40 vol, 25° C., then heating). To be noted: for solubility in the solvents tested (in words): 13 solvents, up to 40 vol; for Observation after treatment: 40 vol. On the procedure: Compound II-1 (40 mg) was treated with an aliquot of solvent (200 μl for 5 vol, 400 μl for 10 vol, 800 μl for 20 vol) and left to stir at 25° C. for 15 minutes. After 15 minutes, suspensions were treated with another aliquot of solvent and left to stir for the same duration again. Any solutions were removed from stirring and further solvent additions. This procedure was repeated up to 40 vol.
At 40 vol, any remaining suspensions were heated to 40° C. at a rate of 10° C./min. Samples that remained as suspensions at 40° C. were moved to the maturation chamber (RT/50° C.) for 4 days. All solutions from solvent additions were heated to 50° C. before cooling to 5° C. at a rate of 0.1° C./min, then held at 5° C. overnight. […]

Series [5] is described as follows: Hygroscopicity suggested by Thermal Gravimetric Analysis (TGA) weight loss. To be noted: suggested by TGA weight loss / 1H NMR solvent content. Here is the method:
Thermal Gravimetric Analysis (TGA): TGA data was collected on a TA Instruments Q5000 TGA. A predefined amount of the sample, 2.0 to 10.0 mg, was placed in an aluminum pan and heated at 10° C./minute from 40° C. to 300° C., or varied as experimentation dictated. A purge of dry nitrogen at 25 ml/minute was maintained over the sample. The instrument control and data acquisition are acquired using Q Advantage software release version 5.5.23. The data was processed and presented using the TA Universal Analysis 2000 software version 4.5A build 4.5.0.5.

Series [6] can be described thus: Solubility measurements in SGF, FeSSIF and FaSSIF with XRPD of residual solids. The text has this: The results from the solubility measurements in simulated gastric fluid (SGF), simulated fed state conditions in the small intestines (FeSSIF), and simulated fasting state conditions in the small intestines fluid (FaSSIF) are summarised in Table 12. The salts show reduced solubility in SGF compared to the free form.
Crystalline FB Form A, HCl Form A, and the sufate salt Form A were scaled up for solubility analysis.
HCl Form A was successfully scaled up for solubility analysis.

Where [7] appears, read: listed as Compound III-1 Form A.
Where [8] appears, read: listed as Compound III-1 Form B.

As a reminder, the Solubility is the concentration that dissolves in the medium under given conditions.

SMILES strings stand for the structures. “Also recorded” adds a separate entry of the source.

With `C=C(C)C(=O)Nc1ccc(-c2c(-c3ccc(Oc4nccc(C)n4)c(F)c3)c3c(N)ncnc3n2C)cc1.Cl` [Compound I-1, N-(4-(4-amino-5-(3-fluoro-4-((4-methylpyrimidin-2-yl)oxy)phenyl)-7-methyl-7H-pyrrolo[2,3-d]pyrimidin-6-yl)phenyl)methacrylamide hydrochloride], the Solubility in series [1] (Fasted State Simulated Intestinal Fluid (FaSSIF), fassif, thermodynamic from solid, Fasted State Simulated Intestinal Fluid, solids from salt screen in IPA) is 5.1 µg/mL; in series [2] (ethanol), 2300 µg/mL; in series [2] (methanol) it was 18700 µg/mL. In series [1], the “Final pH” value is on record as 4.06.
As to `C=C(C)C(=O)Nc1ccc(-c2c(-c3ccc(Oc4nccc(C)n4)c(F)c3)c3c(N)ncnc3n2C)cc1` [Compound I-3], the “Solubility in FaSSIF” value in series [1] (Fasted State Simulated Intestinal Fluid, solids from salt screen in IPA, listed as HBr - Form A) was 4.5 µg/mL. Besides, the “Final pH” value in series [1] (listed as HBr - Form A) was 5.5.
For `C=C(C)C(=O)Nc1ccc(-c2c(-c3ccc(Oc4nccc(C)n4)c(F)c3)c3c(N)ncnc3n2C)cc1` [Compound I-4], the “Solubility in FaSSIF” value in series [1] (Fasted State Simulated Intestinal Fluid, solids from salt screen in IPA, listed as Sulfate - Form B) was 1.2 µg/mL. Further, the “Final pH” value in series [1] (listed as Sulfate - Form B) is on record as 5.86.
For `C=C(C)C(=O)Nc1ccc(-c2c(-c3ccc(Oc4nccc(C)n4)c(F)c3)c3c(N)ncnc3n2C)cc1` [Compound I-6], the “Solubility in FaSSIF” value in series [1] (Fasted State Simulated Intestinal Fluid, solids from salt screen in IPA, listed as Mesylate - Form A) is 6.5 µg/mL. Besides, in series [1] (listed as Mesylate - Form A), the “Final pH” value is on record as 4.82.
Consider `C=C(C)C(=O)Nc1ccc(-c2c(C3=CC[C@H](C(=O)N4CCCC4)CC3)c3c(N)ncnc3n2C)c(C)c1` [Compound II-1, (R)—N-(4-(4-amino-7-methyl-5-(4-(pyrrolidine-1-carbonyl)cyclohex-1-en-1-yl)-7H-pyrrolo[2,3-d]pyrimidin-6-yl)-3-methylphenyl)methacrylamide], for which the “XRPD after storage at 40° C./75% RH for 7 days” value is “no change; also recorded: Unchanged” in series [3] (listed as Compound II-1 Form A) and “Unchanged” in series [3] (listed as Compound II-1 Form B). Besides, the “solubility (solvent volumes to give a clear solution)” value was 10 vol in series [4] (10% H2O/IPA, 25° C.); 20 vol in series [4] (THF, 25° C.); 20 vol in series [4] (ethanol, 25° C.). The “solubility in the solvents tested (in words)” value in series [4] is “reasonable solubility in polar solvents”. The “hygroscopicity (in words)” value in series [5] (listed as Compound 1 Pattern 2) is given as “hygroscopic”; in series [5] (listed as Compound II-1 Form A), “slightly hygroscopic”.
With `C=C(C)C(=O)Nc1ccc(-c2c(C3=CC[C@H](C(=O)N4CCCC4)CC3)c3c(N)ncnc3n2C)c(C)c1.CS(=O)(=O)O` [Compound II-5], in series [3], the “XRPD after storage at 40° C./75% RH for 7 days” value is reported as “no change”. The “hygroscopicity (in words)” value in series [5] is “hygroscopic”.
For the molecule `C#Cc1cc(OC)c(-c2c(-c3ccc(Oc4nccc(C)n4)c(F)c3)c3c(C)ncnc3n2C)cn1` [Compound III-1, 6-(6-ethynyl-4-methoxypyridin-3-yl)-5-(3-fluoro-4-((4-methylpyrimidin-2-yl)oxy)phenyl)-4,7-dimethyl-7H-pyrrolo[2,3-d]pyrimidine], the “XRPD after storage at 40° C./75% RH for 7 days” value is “no change in form” in series [3] (setting [7]), “conversion to Form A (plus additional peaks)” in series [3] (setting [8]) and “no change in form” in series [3] (listed as Compound III-1 Form C). Also, in series [6] (all media (SGF, FeSSIF, FaSSIF)), the “XRPD of residual solids after solubility measurement” value is given as “remained unchanged”. Also, in series [6] (simulated fasting state intestinal fluid), the “solubility in FaSSIF (in words)” value is on record as “lowest solubility”. In addition, the Observation after treatment entry in series [4] (2-Propanol, after maturation (RT/50° C.) 4 days) was “Suspension”; in series [4] (10% Water/IPA, after maturation (RT/50° C.) 4 days), “Suspension”; in series [4] (10% Water/MeCN, after cooling from 50° C. to 5° C.), “Clear”; in series [4] (Acetone, after cooling from 50° C. to 5° C.) it was “Very thin”; in series [4] (Ethanol, after maturation (RT/50° C.) 4 days) it was “Suspension”; in series [4] (Ethyl acetate, after maturation (RT/50° C.) 4 days) it was “Suspension”. Further, the Observation after treatment result was “Suspension” in series [4] (Isopropyl acetate, after maturation (RT/50° C.) 4 days); “Suspension” in series [4] (MEK, after maturation (RT/50° C.) 4 days); “Very thin” in series [4] (Methanol, after cooling from 50° C. to 5° C.); “Suspension” in series [4] (TBME, after maturation (RT/50° C.) 4 days); “Clear” in series [4] (THF, after cooling from 50° C. to 5° C.); “Suspension” in series [4] (Water, after maturation (RT/50° C.) 4 days). Also, in series [4] (n-Heptane, after maturation (RT/50° C.) 4 days), the Observation after treatment entry was “Suspension”. Moreover, the “solubility (solvent volumes to give a clear solution)” value stood at 40 vol in series [4] (10% water/MeCN, 50° C.); 40 vol in series [4] (THF, 25° C.); 40 vol in series [4] (acetone, 50° C.); 40 vol in series [4] (methanol, 50° C.). Further, in series [4], the “solubility in the solvents tested (in words)” value was “low solubility”. For the same molecule, the entries for the “hygroscopicity (in words)” value in series [5] (setting [7]) and in series [5] (setting [8]) were “potentially hygroscopic” and “possibly hygroscopic”, respectively.
`C#Cc1cc(C)c(-c2c(-c3ccc(Oc4nccc(C)n4)c(F)c3)c3c(C)ncnc3n2C)c(C)n1.Cc1ccc(S(=O)(=O)O)cc1` [Compound IV-3]: the figures for the “XRPD after storage at 40° C./75% RH for 7 days” value in series [3] (listed as Compound IV pTSA Form A) and in series [3] (listed as Compound IV-1 tosylate salt) were “pTSA Form B” and “change form”, respectively. Besides, the “XRPD of residual solids after solubility measurement” value in series [6] (FaSSIF) is recorded as “remained unchanged”; in series [6] (FeSSIF), “too poorly crystalline to assign”; in series [6] (SGF), “remained unchanged”.
